Reference: the NIST ThermoML archive (doi:10.1021/je4003515)

Legend:
[1] = refractive index (Na D-line) (dimensionless); mn = molality of the nth substance listed, in mol/kg; conditions: 298.15 K, 101 kPa, Liquid, Standard Abbe refractometry
[2] = mn = molality of the nth substance listed, in mol/kg; conditions: 101 kPa, Liquid; for viscosity: Capillary tube (Ostwald / Ubbelohde) method; for mass density: Vibrating tube method

CCO [ethanol] + O
[1]
Conditions | refractive index
m1 = 14 | 1.355
m1 = 16 | 1.3564
m1 = 18 | 1.3575
m1 = 20 | 1.3583
m1 = 22 | 1.3585

[2]
Conditions | mass density, 293.15 K [kg/m3] | mass density, 298.15 K [kg/m3] | mass density, 303.15 K [kg/m3] | mass density, 308.15 K [kg/m3] | mass density, 313.15 K [kg/m3] | viscosity, 293.15 K [mPa·s] | viscosity, 298.15 K [mPa·s] | viscosity, 303.15 K [mPa·s] | viscosity, 308.15 K [mPa·s] | viscosity, 313.15 K [mPa·s]
m1 = 14 | 936.706 | 933.024 | 929.265 | 925.437 | 921.529 | 2.895 | 2.35 | 1.97 | 1.673 | 1.44
m1 = 16 | 930.583 | 926.799 | 922.942 | 919.015 | 915.018 | 2.9 | 2.363 | 1.988 | 1.69 | 1.456
m1 = 18 | 924.182 | 920.298 | 916.351 | 912.337 | 908.255 | 2.889 | 2.365 | 1.99 | 1.695 | 1.462
m1 = 20 | 918.792 | 914.849 | 910.842 | 906.77 | – | 2.878 | 2.371 | 1.999 | 1.704 | 1.475
m1 = 22 | 913.462 | 909.466 | 905.406 | 901.281 | – | 2.862 | 2.352 | 1.989 | 1.7 | 1.469

CCCO [propan-1-ol] + O
[1]
Conditions | refractive index
m1 = 14 | 1.364
m1 = 16 | 1.3654
m1 = 18 | 1.367
m1 = 20 | 1.368
m1 = 22 | 1.3695

[2]
Conditions | mass density, 293.15 K [kg/m3] | mass density, 298.15 K [kg/m3] | mass density, 303.15 K [kg/m3] | mass density, 308.15 K [kg/m3] | mass density, 313.15 K [kg/m3] | viscosity, 293.15 K [mPa·s] | viscosity, 298.15 K [mPa·s] | viscosity, 303.15 K [mPa·s] | viscosity, 308.15 K [mPa·s] | viscosity, 313.15 K [mPa·s]
m1 = 14 | 918.103 | 914.486 | 910.811 | 907.075 | 903.277 | 3.11 | 2.599 | 2.193 | 1.88 | 1.626
m1 = 16 | 911.211 | 907.532 | 903.797 | 899.995 | 896.13 | 3.151 | 2.637 | 2.23 | 1.906 | 1.648
m1 = 18 | 905.417 | 901.687 | 897.899 | 894.048 | 890.133 | 3.176 | 2.663 | 2.255 | 1.93 | 1.67
m1 = 20 | 899.512 | 895.724 | 891.885 | 887.984 | 884.02 | 3.178 | 2.671 | 2.263 | 1.938 | 1.679
m1 = 22 | 895.376 | 891.557 | 887.682 | 883.751 | 879.756 | – | – | – | – | –
